Results: patent US6545151B2, “Pentacyclic compound” (Daiichi Pharmaceutical Co., Ltd., priority 1995, dated 2003)
In brackets after ≈: the same amount, converted by molar mass.

Tests used:
PC-6 = assay: MTT cell proliferation test, PC-6; type: cell-based; settings: PC-6 tumor cell line, cultured for 3 days, absorbance at 540 nm
Protocol: (§1) Cells of each of three tumor cell lines, P388, PC-6 and PC-12, were inoculated into a 96 well microplate in an inoculum size of 5.0×10^2 cells/150 μl/well (P388), 5.0×10^3 cells/150 μl/well (PC-6) or 1.0×10^3 cells/150 μl/well (PC-12), and 50 μl/well of each sample was added to the plate 2 hours thereafter in the case of P388 or 24 hours thereafter in the case of the other two. Thereafter, the cells were cultured for 3 days and then 5 mg/ml solution of MTT [3-(4,5-dimethylthiazol-2-yl)-2,5-diphenyl-2H-tetrazolium bromide] was dispensed in 20 μl/well portions into wells of the microplate. Four hours thereafter, the culture medium was removed, 150 μl of dimethyl sulfoxide was added to each well and then absorbance at 540 nm was measured. The antitumor effect is shown as GI50 value (ng/ml) of each drug which decreases cell proliferation in each drug-added group to 50% of that in the control group.

PC-12 = assay: MTT cell proliferation test, PC-12; type: cell-based; settings: PC-12 tumor cell line, cultured for 3 days, absorbance at 540 nm
Protocol: as §1

P388 = assay: MTT cell proliferation test, P388; type: cell-based; settings: P388 tumor cell line, cultured for 3 days, absorbance at 540 nm
Protocol: as §1

[1] = tested on: digestive organ cancers, especially large bowel cancers; settings: clinical tests; cited from earlier work

| Compound | GI50 value (PC-6) | GI50 value (PC-12) | GI50 value (P388) | efficacy on digestive organ cancers, especially large bowel cancers [1] |
| --- | --- | --- | --- | --- |
| 7α,9β-4-O-Butanoyl-13-O-[(2R,3R)-3-(tert-butoxycarbonylamino)-3-(2-furyl)-2-hydroxypropionyl]-7-deoxy-4,10-dideacetyl-9-dihydro-7-fluoro-9,10-O-(2-morpholinoethylidene)baccatin III [Inventive Example 81] | 0.0604 ng/mL | 0.050 ng/mL | 0.0048 ng/mL |  |
| 9β-4-O-Butanoyl-13-O-[(2R,3R)-3-(tert-butoxycarbonylamino)-3-(2-furyl)-2-hydroxypropionyl]-4,10-dideacetyl-9-dihydro-9,10-O-(2-morpholinoethylidene)baccatin III [Inventive Example 22] | 0.187 ng/mL | 0.181 ng/mL | 0.0193 ng/mL |  |
| 9β-13-O-[3-(tert-Butoxycarbonylamino)-2-hydroxy-2-methyl-3-(4-pyridyl)propionyl]-4,10-dideacetyl-9-dihydro-4-O-ethoxycarbonyl-9,10-O-isopropylidenebaccatin III [Inventive Example 101] | 0.409 ng/mL | 0.125 ng/mL | 0.0301 ng/mL |  |
| 9β-13-O-[3-(tert-Butoxycarbonylamino)-2-hydroxy-2-methyl-3-(4-pyridyl)propionyl]-4,10-dideacetyl-9-dihydro-9,10-O-isopropylidene-4-O-propionylbaccatin III [Inventive Example 90] | 0.209 ng/mL | 0.0943 ng/mL | 0.0519 ng/mL |  |
| 9β-13-O-[3-(tert-Butoxycarbonylamino)-2-hydroxy-2-methyl-3-(4-pyridyl)propionyl]-4-O-cyclopropanecarbonyl-4,10-dideacetyl-7-deoxy-9-dihydro-9,10-O-isopropylidenebaccatin III [Inventive Example 65] | 0.278 ng/mL | 0.0684 ng/mL | 0.00509 ng/mL |  |
| 9β-13-O-[3-(tert-Butoxycarbonylamino)-2-hydroxy-2-methyl-3-(4-pyridyl)propionyl]-4-O-cyclopropanecarbonyl-4,10-dideacetyl-9-dihydro-9,10-O-isopropylidenebaccatin III [Inventive Example 60] | 0.395 ng/mL | 0.0698 ng/mL | 0.0129 ng/mL |  |
| 9β-13-O-[3-(tert-Butoxycarbonylamino)-2-hydroxy-2-methyl-3-(4-pyridyl)propionyl]-4-O-cyclopropanecarbonyl-7-deoxy-4,10-dideacetyl-6,7-didehydro-9-dihydro-9,10-O-isopropylidenebaccatin III [Inventive Example 121] | 0.803 ng/mL | 0.0498 ng/mL | 0.00173 ng/mL |  |
| 9β-13-O-[3-(tert-Butoxycarbonylamino)-2-hydroxy-2-methyl-3-(4-pyridyl)propionyl]-10-deacetyl-7-deoxy-9-dihydro-9,10-O-isopropylidenebaccatin III [Inventive Example 95] | 0.0992 ng/mL | 0.0121 ng/mL | 0.0034 ng/mL |  |
| 9β-13-O-[3-(tert-Butoxycarbonylamino)-3-(2-furyl)-2-hydroxy-2-methylpropionyl]-4-O-cyclopropanecarbonyl-4,10-dideacetyl-9-dihydro-9,10-O-(2-morpholinoethylidene)baccatin III [Inventive Example 57] | 0.734 ng/mL | 0.0739 ng/mL | 0.0135 ng/mL |  |
| 9β-13-O-[(2R,3R)-3-(tert-Butoxycarbonylamino)-2-hydroxy-3-(2-thienyl)propionyl]-10-deacetyl-7-deoxy-9-dihydro-9,10-O-(2-morpholinoethylidene)baccatin III [Inventive Example 98] | 0.0696 ng/mL | 0.022 ng/mL | 0.0126 ng/mL |  |
| 9β-13-O-[(2R,3R)-3-(tert-Butoxycarbonylamino)-3-(2-furyl)-2-hydroxypropionyl]-4,10-dideacetyl-9-dihydro-9,10-O-(2-morpholinoethylidene)-4-O-propionylbaccatin III [Inventive Example 25] | 1.31 ng/mL | 0.234 ng/mL | 0.0549 ng/mL |  |
| 9β-13-O-[(2R,3R)-3-(tert-Butoxycarbonylamino)-3-(2-furyl)-2-hydroxypropionyl]-4-O-cyclopropanecarbonyl-4,10-dideacetyl-9-dihydro-9,10-O-(2-morpholinoethylidene)baccatin III [Inventive Example 51] | 0.354 ng/mL | 0.0669 ng/mL | 0.00754 ng/mL |  |
| 9β-13-O-[(2R,3R)-3-(tert-Butoxycarbonylamino)-3-(2-furyl)-2-hydroxypropionyl]-4-O-cyclopropanecarbonyl-7-deoxy-4,10-dideacetyl-6,7-didehydro-9-dihydro-9,10-O-(2-morpholinoethylidene)baccatin III [Inventive Example 123] | 0.366 ng/mL | 0.167 ng/mL | 0.0158 ng/mL |  |
| 9β-13-O-[(2R,3R)-3-(tert-Butoxycarbonylamino)-3-(2-furyl)-2-hydroxypropionyl]-10-deacetyl-7-deoxy-9-dihydro-9,10-O-(2-dimethylaminoethylidene)baccatin III [Inventive Example 105] | 0.190 ng/mL | 0.0643 ng/mL | 0.0475 ng/mL |  |
| 9β-13-O-[(2R,3R)-3-(tert-Butoxycarbonylamino)-3-(2-furyl)-2-hydroxypropionyl]-10-deacetyl-7-deoxy-9-dihydro-9,10-O-(2-morpholinoethylidene)baccatin III [Inventive Example 79] | 0.0673 ng/mL | 0.0264 ng/mL | 0.00689 ng/mL |  |
| 9β-13-O-[(2R,3S)-3-(tert-Butoxycarbonylamino)-2-hydroxy-3-(2-pyridyl)propionyl]-4-O-cyclopropanecarbonyl-4,10-dideacetyl-9-dihydro-9,10-O-isopropylidenebaccatin III [Inventive Example 69] | 0.0915 ng/mL | 0.0466 ng/mL | 0.0161 ng/mL |  |
| 9β-13-O-[(2R,3S)-3-(tert-Butoxycarbonylamino)-2-hydroxy-3-(4-pyridyl)propionyl]-4-O-cyclopropanecarbonyl-4,10-dideacetyl-7-deoxy-9-dihydro-9,10-O-isopropylidenebaccatin III [Inventive Example 70] | 0.160 ng/mL | 0.0184 ng/mL | 0.00137 ng/mL |  |
| 9β-13-O-[(2R,3S)-3-(tert-Butoxycarbonylamino)-2-hydroxy-3-phenylpropionyl]-4-O-cyclopropanecarbonyl-4,10-dideacetyl-9-dihydro-9,10-O-(2-morpholinoethylidene)baccatin III [Inventive Example 53] | 0.874 ng/mL | 0.0758 ng/mL | 0.0128 ng/mL |  |
| CC(=O)O[C@H]1C(=O)[C@@]2(C)[C@H]([C@H](OC(=O)c3ccccc3)[C@]3(O)C[C@H](OC(=O)[C@H](O)[C@@H](NC(=O)c4ccccc4)c4ccccc4)C(C)=C1C3(C)C)[C@]1(OC(C)=O)CO[C@@H]1C[C@@H]2O [Taxol, reference compound] | 1.20 ng/mL (≈ 1.41 nM) | 82.2 ng/mL (≈ 96.3 nM) | 4.36 ng/mL (≈ 5.11 nM) | low efficacy |
| CC(=O)O[C@@]12CO[C@@H]1C[C@H](O)[C@@]1(C)C(=O)[C@H](O)C3=C(C)[C@@H](OC(=O)[C@H](O)[C@@H](NC(=O)OC(C)(C)C)c4ccccc4)C[C@@](O)([C@@H](OC(=O)c4ccccc4)[C@H]21)C3(C)C [Taxotere, reference compound] | 1.16 ng/mL (≈ 1.44 nM) | 19.1 ng/mL (≈ 23.6 nM) | 1.62 ng/mL (≈ 2.01 nM) | low efficacy |
